Source: ChEMBL document CHEMBL2406964, “Caffeic acid phenethyl ester inhibits alpha-melanocyte stimulating hormone-induced melanin synthesis through suppressing transactivation activity of microphthalmia-associated transcription factor” (J Nat Prod, 2013)
Blank lines part the entries; values can stand above or below the compound they belong to. Calls of active or inactive are those of the source. The calls are words filed in the database; no cut-off is given here.

Key:
B16-F10 [1] = experiment: Antimelanogenic activity in mouse B16F10 cells assessed as inhibition of alpha-MSH-induced melanin production at 1 to 2 uM after 72 hrs by spectrophotometry; type: functional, cell-based
[2] = target: T1, Microphthalmia-associated transcription factor (Mus musculus) (UniProt Q08874); experiment: Inhibition of MITF binding to M-box region of TRP-2 promoter in alpha-MSH-induced mouse B16F10 cells at 1 uM after 24 hrs by Chromatin immunoprecipitation assay; type: cell-based; settings: B16-F10
T1 sequence (whole entry): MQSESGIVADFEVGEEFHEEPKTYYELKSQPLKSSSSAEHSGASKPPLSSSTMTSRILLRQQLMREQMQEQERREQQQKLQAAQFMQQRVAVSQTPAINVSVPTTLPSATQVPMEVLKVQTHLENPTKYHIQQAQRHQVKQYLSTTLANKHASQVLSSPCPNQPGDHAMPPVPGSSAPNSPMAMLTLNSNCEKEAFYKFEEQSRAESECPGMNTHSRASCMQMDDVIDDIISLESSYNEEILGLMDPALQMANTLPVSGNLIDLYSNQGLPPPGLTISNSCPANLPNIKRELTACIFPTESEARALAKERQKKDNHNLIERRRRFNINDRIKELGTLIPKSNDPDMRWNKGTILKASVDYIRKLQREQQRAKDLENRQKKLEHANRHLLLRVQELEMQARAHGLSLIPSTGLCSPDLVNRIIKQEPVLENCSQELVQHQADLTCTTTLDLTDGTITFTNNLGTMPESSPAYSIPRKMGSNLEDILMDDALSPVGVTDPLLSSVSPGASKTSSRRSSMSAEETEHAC

[3] = target: T1, Microphthalmia-associated transcription factor (Mus musculus); experiment: Inhibition of MITF binding to M-box region of TRP-1 promoter in alpha-MSH-induced mouse B16F10 cells at 1 uM after 24 hrs by Chromatin immunoprecipitation assay; type: cell-based; settings: B16-F10
[4] = target: T1, Microphthalmia-associated transcription factor (Mus musculus); experiment: Inhibition of MITF binding to M-box region of tyrosinase promoter in alpha-MSH-induced mouse B16F10 cells at 1 uM after 24 hrs by Chromatin immunoprecipitation assay; type: cell-based; settings: B16-F10
[5] = target: T1, Microphthalmia-associated transcription factor (Mus musculus); experiment: Inhibition of MITF in mouse B16F10 cells assessed as inhibition of alpha-MSH-induced tyrosinase promoter activity after 24 hrs by luciferase reporter gene assay; type: cell-based; settings: B16-F10
[6] = target: Glycogen synthase kinase-3 beta (Mus musculus) (UniProt Q9WV60); experiment: Inhibition of GSK-3beta phosphorylation in alpha-MSH-induced mouse B16F10 cells at 1 uM after 30 mins to 2 hrs by Western blotting analysis; type: cell-based; settings: B16-F10
Sequence of Glycogen synthase kinase-3 beta (Mus musculus) (Q9WV60 whole entry, looked up): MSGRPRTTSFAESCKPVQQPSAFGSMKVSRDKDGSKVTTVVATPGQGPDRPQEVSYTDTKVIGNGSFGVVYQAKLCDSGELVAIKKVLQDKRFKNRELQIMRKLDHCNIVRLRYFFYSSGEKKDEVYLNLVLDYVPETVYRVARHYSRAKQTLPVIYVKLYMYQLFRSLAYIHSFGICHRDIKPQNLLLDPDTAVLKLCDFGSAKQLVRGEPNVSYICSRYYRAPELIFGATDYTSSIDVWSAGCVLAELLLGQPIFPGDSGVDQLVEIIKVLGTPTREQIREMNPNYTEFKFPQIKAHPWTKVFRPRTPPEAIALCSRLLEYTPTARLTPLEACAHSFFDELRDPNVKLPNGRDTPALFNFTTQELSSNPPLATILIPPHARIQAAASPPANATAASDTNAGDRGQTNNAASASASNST

[7] = target: RAC-alpha serine/threonine-protein kinase (Mus musculus) (UniProt P31750); experiment: Inhibition of Akt phosphorylation in alpha-MSH-induced mouse B16F10 cells at 1 uM after 30 mins to 2 hrs by Western blotting analysis; type: cell-based; settings: B16-F10
Sequence of RAC-alpha serine/threonine-protein kinase (Mus musculus) (P31750 whole entry): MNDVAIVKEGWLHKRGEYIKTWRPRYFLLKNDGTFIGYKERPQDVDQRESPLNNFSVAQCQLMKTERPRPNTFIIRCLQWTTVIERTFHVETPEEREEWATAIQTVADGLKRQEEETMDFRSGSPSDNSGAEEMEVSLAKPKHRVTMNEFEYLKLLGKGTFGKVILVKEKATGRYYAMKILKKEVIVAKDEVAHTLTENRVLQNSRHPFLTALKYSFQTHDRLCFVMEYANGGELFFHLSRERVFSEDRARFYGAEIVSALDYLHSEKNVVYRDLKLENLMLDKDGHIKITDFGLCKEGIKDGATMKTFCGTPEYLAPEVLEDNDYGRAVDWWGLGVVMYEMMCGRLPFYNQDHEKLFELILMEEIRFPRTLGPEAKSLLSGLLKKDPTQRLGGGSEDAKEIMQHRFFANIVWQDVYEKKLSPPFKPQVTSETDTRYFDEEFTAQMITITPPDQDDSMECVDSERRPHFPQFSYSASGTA

B16-F10 [8] = experiment: Inhibition of CREB phosphorylation in alpha-MSH-induced mouse B16F10 cells at 1 uM after 30 mins to 2 hrs by Western blotting analysis; type: cell-based
B16-F10 [9] = experiment: Antimelanogenic activity in mouse B16F10 cells assessed as inhibition of alpha-MSH-induced MITF nuclear translocation at 1 uM after 30 mins to 2 hrs by Western blotting analysis; type: functional, cell-based
B16-F10 [10] = experiment: Antimelanogenic activity in mouse B16F10 cells assessed as inhibition of alpha-MSH-induced MITF protein expression at 1 uM after 30 mins to 2 hrs by Western blotting analysis; type: functional, cell-based
[11] = target: T1, Microphthalmia-associated transcription factor (Mus musculus); experiment: Inhibition of MITF in mouse B16F10 cells assessed as inhibition of alpha-MSH-induced TRP2 protein expression after 48 hrs by Western blotting analysis; type: cell-based; settings: B16-F10
[12] = target: T1, Microphthalmia-associated transcription factor (Mus musculus); experiment: Inhibition of MITF in mouse B16F10 cells assessed as inhibition of alpha-MSH-induced TRP1 protein expression after 48 hrs by Western blotting analysis; type: cell-based; settings: B16-F10
[13] = target: T1, Microphthalmia-associated transcription factor (Mus musculus); experiment: Inhibition of MITF in mouse B16F10 cells assessed as inhibition of alpha-MSH-induced tyrosinase protein expression after 48 hrs by Western blotting analysis; type: cell-based; settings: B16-F10
[14] = target: T1, Microphthalmia-associated transcription factor (Mus musculus); experiment: Inhibition of MITF in mouse B16F10 cells assessed as inhibition of alpha-MSH-induced TRP2 mRNA expression after 48 hrs by RT-PCR analysis; type: cell-based; settings: B16-F10
[15] = target: T1, Microphthalmia-associated transcription factor (Mus musculus); experiment: Inhibition of MITF in mouse B16F10 cells assessed as inhibition of alpha-MSH-induced TRP1 mRNA expression after 48 hrs by RT-PCR analysis; type: cell-based; settings: B16-F10
B16-F10 [16] = experiment: Antimelanogenic activity in mouse B16F10 cells assessed as inhibition of alpha-MSH-induced MITF mRNA expression at 1 uM after 30 mins to 2 hrs by RT-PCR analysis; type: functional, cell-based
[17] = target: T1, Microphthalmia-associated transcription factor (Mus musculus); experiment: Inhibition of MITF in mouse B16F10 cells assessed as inhibition of alpha-MSH-induced tyrosinase mRNA expression after 48 hrs by RT-PCR analysis; type: cell-based; settings: B16-F10
[18] = target: T2, Tyrosinase (Mus musculus) (UniProt P11344); experiment: Inhibition of tyrosinase in alpha-MSH-treated mouse B16F10 cells assessed as reduction in L-DOPA oxidase activity at 0.5 to 2 uM after 72 hrs; type: cell-based; settings: B16-F10
T2 sequence (whole entry): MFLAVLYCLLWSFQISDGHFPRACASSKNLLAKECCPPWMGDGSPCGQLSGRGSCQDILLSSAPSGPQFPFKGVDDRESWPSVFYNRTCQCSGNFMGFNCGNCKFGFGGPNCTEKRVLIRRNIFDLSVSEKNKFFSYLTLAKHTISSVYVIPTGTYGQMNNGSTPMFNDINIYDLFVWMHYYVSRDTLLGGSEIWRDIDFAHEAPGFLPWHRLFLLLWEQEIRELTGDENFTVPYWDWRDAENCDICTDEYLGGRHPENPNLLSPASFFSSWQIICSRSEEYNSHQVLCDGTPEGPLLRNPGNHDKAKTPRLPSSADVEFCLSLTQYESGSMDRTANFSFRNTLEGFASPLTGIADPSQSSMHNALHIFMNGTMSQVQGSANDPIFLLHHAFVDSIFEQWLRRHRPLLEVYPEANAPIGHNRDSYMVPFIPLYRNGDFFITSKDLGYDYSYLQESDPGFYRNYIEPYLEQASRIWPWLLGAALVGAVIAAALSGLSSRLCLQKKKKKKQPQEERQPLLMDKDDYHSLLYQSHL

[19] = target: T2, Tyrosinase (Mus musculus); experiment: Inhibition of tyrosinase in alpha-MSH-treated mouse B16F10 cells up to 100 uM after 72 hrs by L-DOPA oxidase assay; type: cell-based; settings: B16-F10
B16-F10 [20] = experiment: Antimelanogenic activity in mouse B16F10 cells assessed as inhibition of alpha-MSH-induced secreted melanin production after 72 hrs by spectrophotometry; type: functional, cell-based
B16-F10 [21] = experiment: Antimelanogenic activity in mouse B16F10 cells assessed as inhibition of alpha-MSH-induced intracellular melanin production after 72 hrs by spectrophotometry; type: functional, cell-based
B16-F10 [22] = experiment: Cytotoxicity against mouse B16F10 cells up to 2 uM after 72 hrs by MTT assay; type: cell-based; settings: b16-f10, 72 h

SMILES: O=C(O)/C=C/c1ccc(O)c(O)c1
- inhibition (B16-F10 [1]): inactive

SMILES: OCCc1ccccc1
- inhibition (B16-F10 [1]): inactive

SMILES: O=C(/C=C/c1ccccc1)OCCc1ccccc1
- inhibition (B16-F10 [1]): inactive

- inhibition [2]: Active
- inhibition [3]: Active
- inhibition [4]: Active
- inhibition [5]: Dose-dependent effect
- inhibition [6]: inactive
- inhibition [7]: inactive
- inhibition [11]: Dose-dependent effect
- inhibition [12]: Dose-dependent effect
- inhibition [13]: Dose-dependent effect
- inhibition [14]: Dose-dependent effect
- inhibition [15]: Dose-dependent effect
- inhibition [17]: Dose-dependent effect
- inhibition [18]: Active
- inhibition [19]: inactive
SMILES: O=C(/C=C/c1ccc(O)c(O)c1)OCCc1ccccc1 [CAFFEIC ACID PHENETHYL ESTER]
- inhibition (B16-F10 [8]): inactive
- inhibition (B16-F10 [9]): inactive
- inhibition (B16-F10 [10]): inactive
- inhibition (B16-F10 [16]): inactive
- inhibition (B16-F10 [20]): Dose-dependent effect
- inhibition (B16-F10 [21]): Dose-dependent effect
- Activity (B16-F10 [22]): Non-toxic
